Legend:
[1] = compound: T1, CN1CC[C@H](c2c(O)cc(O)c3c(=O)cc(-c4ccccc4Cl)oc23)[C@H](O)C1 [Flavopiridol]; assay: increase in dead-cell fraction, 72 h; higher = more death;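 note: breast cancer cell lines in 384-well plates, stained with Hoechst plus LIVE/DEAD far red dye and imaged, cells above an LDR intensity threshold counted dead, Hoechst-negative corpses included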
[2] = compound: CC(=O)c1c(C)c2cnc(Nc3ccc(N4CCNCC4)cn3)nc2n(C2CCCC2)c1=O; assay: as above
[3] = compound: CCN1CCN(Cc2ccc(Nc3ncc(F)c(-c4cc(F)c5nc(C)n(C(C)C)c5c4)n3)nc2)CC1; assay: as above
[4] = compound: T2, CN(C)C(=O)c1cc2cnc(Nc3ccc(N4CCNCC4)cn3)nc2n1C1CCCC1 [LEE011/Ribociclib]; assay: as above
[5] = compound: T1, Flavopiridol; assay: GR value, 72 h; higher = faster growth (1 = untreated, <0 = killing);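 note: breast cancer and non-malignant breast epithelial lines, nine half-log doses, viable cells counted by Hoechst and LIVE/DEAD dye imaging versus time-zero plates and DMSO controls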
[6] = compound: CC(=O)c1c(C)c2cnc(Nc3ccc(N4CCNCC4)cn3)nc2n(C2CCCC2)c1=O; assay: as above
[7] = compound: CCN1CCN(Cc2ccc(Nc3ncc(F)c(-c4cc(F)c5nc(C)n(C(C)C)c5c4)n3)nc2)CC1; assay: as above
[8] = compound: CC(=O)c1c(C)c2cnc(Nc3ccc(N4CCN(CCOCCOCCOCCNC(=O)COc5cccc6c5C(=O)N(C5CCC(=O)NC5=O)C6=O)CC4)cn3)nc2n(C2CCCC2)c1=O [BSJ-03-123]; assay: as above
[9] = compound: CCc1cnn2c(NCc3ccc[n+]([O-])c3)cc(N3CCCC[C@H]3CCO)nc12; assay: as above
[10] = compound: T2, LEE011/Ribociclib; assay: as above
[11] = compound: CCOc1cc2ncc(C#N)c(Nc3ccc(OCc4ccccn4)c(Cl)c3)c2cc1NC(=O)/C=C/CN(C)C [Neratinib/HKI272]; assay: as above
[12] = compound: CN(C)C/C=C/C(=O)Nc1ccc(C(=O)Nc2cccc(Nc3ncc(Cl)c(-c4c[nH]c5ccccc45)n3)c2)cc1 [THZ1]; assay: as above

MDAMB415
increase in dead-cell fraction ([1]; 0.0001 µM): 0.0065
increase in dead-cell fraction ([1]; 0.0003162 µM): 0.0005
increase in dead-cell fraction ([1]; 0.001 µM): 0.0075
increase in dead-cell fraction ([1]; 0.003162 µM): 0.0004
increase in dead-cell fraction ([1]; 0.01 µM): -0.0008
increase in dead-cell fraction ([1]; 0.03162 µM): 0.002
increase in dead-cell fraction ([1]; 0.1 µM): 0.0078
increase in dead-cell fraction ([1]; 0.3162 µM): 0.0072
increase in dead-cell fraction ([1]; 1 µM): 0.0932
increase in dead-cell fraction ([2]; 0.0003162 µM): 0.0016
increase in dead-cell fraction ([2]; 0.001 µM): -0.0037
increase in dead-cell fraction ([2]; 0.003162 µM): 0.0018
increase in dead-cell fraction ([2]; 0.01 µM): -0.0004
increase in dead-cell fraction ([2]; 0.03162 µM): 0.0059
increase in dead-cell fraction ([2]; 0.1 µM): 0.0074
increase in dead-cell fraction ([2]; 0.3162 µM): 0.0128
increase in dead-cell fraction ([2]; 1 µM): 0.0178
increase in dead-cell fraction ([2]; 3.162 µM): 0.0141
increase in dead-cell fraction ([3]; 0.001 µM): 0.0027
increase in dead-cell fraction ([3]; 0.003162 µM): 0.004
increase in dead-cell fraction ([3]; 0.01 µM): 0.0062
increase in dead-cell fraction ([3]; 0.03162 µM): 0.015
increase in dead-cell fraction ([3]; 0.1 µM): 0.0137
increase in dead-cell fraction ([3]; 0.3162 µM): 0.021
increase in dead-cell fraction ([3]; 1 µM): 0.0176
increase in dead-cell fraction ([3]; 3.162 µM): 0.0092
increase in dead-cell fraction ([3]; 10 µM): 0.0164
increase in dead-cell fraction ([4]; 0.001 µM): 0.0085
increase in dead-cell fraction ([4]; 0.003162 µM): 0.0083
increase in dead-cell fraction ([4]; 0.01 µM): 0.01
increase in dead-cell fraction ([4]; 0.03162 µM): 0.0117
increase in dead-cell fraction ([4]; 0.1 µM): 0.0179
increase in dead-cell fraction ([4]; 0.3162 µM): 0.0109
increase in dead-cell fraction ([4]; 1 µM): 0.0253
increase in dead-cell fraction ([4]; 3.162 µM): 0.0174
increase in dead-cell fraction ([4]; 10 µM): 0.0203
GR value ([5]; 0.0001 µM): 1 GR
GR value ([5]; 0.0003162 µM): 1.01 GR
GR value ([5]; 0.001 µM): 0.869 GR
GR value ([5]; 0.003162 µM): 0.766 GR
GR value ([5]; 0.01 µM): 0.972 GR
GR value ([5]; 0.03162 µM): 0.821 GR
GR value ([5]; 0.1 µM): 0.788 GR
GR value ([5]; 0.3162 µM): 0.25 GR
GR value ([5]; 1 µM): -0.298 GR
GR value ([6]; 0.0003162 µM): 0.995 GR
GR value ([6]; 0.001 µM): 0.983 GR
GR value ([6]; 0.003162 µM): 0.933 GR
GR value ([6]; 0.01 µM): 0.791 GR
GR value ([6]; 0.03162 µM): 0.498 GR
GR value ([6]; 0.1 µM): 0.298 GR
GR value ([6]; 0.3162 µM): 0.17 GR
GR value ([6]; 1 µM): 0.178 GR
GR value ([6]; 3.162 µM): 0.121 GR
GR value ([7]; 0.001 µM): 0.878 GR
GR value ([7]; 0.003162 µM): 0.833 GR
GR value ([7]; 0.01 µM): 0.478 GR
GR value ([7]; 0.03162 µM): 0.21 GR
GR value ([7]; 0.1 µM): 0.136 GR
GR value ([7]; 0.3162 µM): 0.113 GR
GR value ([7]; 1 µM): 0.086 GR
GR value ([7]; 3.162 µM): 0.0858 GR
GR value ([7]; 10 µM): 0.0092 GR
GR value ([8]; 0.001 µM): 0.922 GR
GR value ([8]; 0.003162 µM): 0.789 GR
GR value ([8]; 0.01 µM): 0.714 GR
GR value ([8]; 0.03162 µM): 0.825 GR
GR value ([8]; 0.1 µM): 0.744 GR
GR value ([8]; 0.3162 µM): 0.674 GR
GR value ([8]; 1 µM): 0.61 GR
GR value ([8]; 3.162 µM): 0.545 GR
GR value ([8]; 10 µM): 0.181 GR
GR value ([9]; 0.0001 µM): 1.06 GR
GR value ([9]; 0.0003162 µM): 1.04 GR
GR value ([9]; 0.001 µM): 1.18 GR
GR value ([9]; 0.003162 µM): 1.2 GR
GR value ([9]; 0.01 µM): 0.935 GR
GR value ([9]; 0.03162 µM): -0.112 GR
GR value ([9]; 0.1 µM): -0.482 GR
GR value ([9]; 0.3162 µM): -0.48 GR
GR value ([9]; 1 µM): -0.484 GR
GR value ([10]; 0.001 µM): 0.708 GR
GR value ([10]; 0.003162 µM): 0.659 GR
GR value ([10]; 0.01 µM): 0.504 GR
GR value ([10]; 0.03162 µM): 0.395 GR
GR value ([10]; 0.1 µM): 0.287 GR
GR value ([10]; 0.3162 µM): 0.248 GR
GR value ([10]; 1 µM): 0.264 GR
GR value ([10]; 3.162 µM): 0.278 GR
GR value ([10]; 10 µM): 0.222 GR
GR value ([11]; 0.0003162 µM): 1.06 GR
GR value ([11]; 0.001 µM): 1.08 GR
GR value ([11]; 0.003162 µM): 1.13 GR
GR value ([11]; 0.01 µM): 1.1 GR
GR value ([11]; 0.03162 µM): 1.06 GR
GR value ([11]; 0.1 µM): 0.989 GR
GR value ([11]; 0.3162 µM): 0.889 GR
GR value ([11]; 1 µM): 0.737 GR
GR value ([11]; 3.162 µM): 0.0984 GR
GR value ([12]; 0.0001 µM): 0.979 GR
GR value ([12]; 0.0003162 µM): 0.999 GR
GR value ([12]; 0.001 µM): 0.995 GR
GR value ([12]; 0.003162 µM): 0.857 GR
GR value ([12]; 0.01 µM): 0.797 GR
GR value ([12]; 0.03162 µM): 0.524 GR
GR value ([12]; 0.1 µM): 0.216 GR
GR value ([12]; 0.3162 µM): -0.218 GR
GR value ([12]; 1 µM): -0.408 GR
